The source of these data is ChEMBL document CHEMBL1159276, “Sinugibberol, a new cytotoxic cembranoid diterpene from the soft coral Sinularia gibberosa” (1995).

One test relates to HT-29. Put plainly: Cytotoxicity against human HT-29 cells after 6 days by MTT method. The format is functional. Conditions: HT-29, 144 h, read-out: ED50 (the source's name).
The test system of the next test is P388. Briefly: Cytotoxicity against mouse P388 cells by MTT method. The format is functional. The conditions noted are these: read-out: ED50 (the source's name). A general note: Tetrazolium dyes change colour on reduction, which living cells bring about.

SMILES strings stand for the structures. Values after ≈ are worked out from the molar mass of the structure shown.

Consider `C/C1=C\CC[C@@]2(C)O[C@@H]2/C=C(/C(C)(C)O)CC[C@@]2(C)O[C@@H]2CC1` [SINUGIBBEROL], for which the EC50 was 0.5 µg/mL (≈ 1.56 µM) in the test with HT-29 and 11.7 µg/mL (≈ 36.5 µM) in the test with P388.
